Where “and” joins values, the source holds several entries; their conditions need not be identical. Identical values can stand only once. Like-named read-outs stand apart in the source and are kept apart here.
How the values were obtained:
[1] = system: focal cerebral infarcts (MCAo); experiment: Hindlimb placing test, Tamura MCAo model; format: in vivo, rat; conditions: AVG, 0=normal, 6=maximally impaired
Description: (§1) Surgical Preparation. Middle Cerebral Artery Occlusion (MCAo), Tamura Model. Focal cerebral infarcts were made by permanent occlusion of the proximal right middle cerebral artery using a modification of the method of Tamura et al. […] The temporalis muscle was bisected and reflected through an incision made midway between the eye and the eardrum canal. The proximal MCA was exposed through a subtemporal craniectomy without removing the zygomatic arch and without transecting the facial nerve. […] Animals were euthanatized at various time periods after MCA occlusion and the brains are removed for histological analysis. Behavioral Analysis. Two behavioral tests were performed, the limb placing and body swing test. […] Limb Placing. The limb placing tests were divided into both forelimb and hindlimb tests. For the forelimb-placing test, the examiner held the rat close to a tabletop and scored the rat's ability to place the forelimb on the tabletop in response to whisker, visual, tactile, or proprioceptive stimulation. Similarly, for the hindlimb placing test, the examiner assessed the rat's ability to place the hindlimb on the tabletop in response to tactile and proprioceptive stimulation. […] Typically, there was a slow and steady recovery of limb placing behavior during the first month after stroke. Experimental Groups and Compound Administration. A total of 80 animals underwent MCAo using subcutaneous administration of all test articles, according to the experimental design illustrated in Table 16. […] All animals were treated with the compound(s)/vehicle(s) as a blinded random investigation. The dose and route of administration is given below in Table 16.

[2] = system: focal cerebral infarcts (MCAo); experiment: Infarct volume measurement (H&E), Tamura MCAo model; format: in vivo, rat; conditions: day 7; for Corrected Infarct Volume, individual animals / Percent Infarct Volume, individual animals: listed as C
Description: Behavioral assessment as well as infarct volume of compound-treated animals in comparison to control (vehicle) volume animals was used for evaluating compound efficacy over a 7 day period.
Surgical Preparation. Middle Cerebral Artery Occlusion (MCAo), Tamura Model. Focal cerebral infarcts were made by permanent occlusion of the proximal right middle cerebral artery using a modification of the method of Tamura et al. Male Sprague-Dawley rats (300-350 g) were anesthetized with 2% isoflourane in 50% Air/50% O2, and maintained with 1-1.5% isoflourane. The temporalis muscle was bisected and reflected through an incision made midway between the eye and the eardrum canal. The proximal MCA was exposed through a subtemporal craniectomy without removing the zygomatic arch and without transecting the facial nerve. […] Body temperature was maintained at 38° C.±1 throughout the entire procedure. Animals were euthanatized at various time periods after MCA occlusion and the brains are removed for histological analysis.
Morphometric Analysis—Brain Perfusion. Seven days after the induction of focal ischemia, rats were deeply anesthetized with a ketamine, and xylazine cocktail. The animals were then perfused transcardially with normal saline (with heparin 2 unit/ml) followed by 4% paraformaldehyde for infarct volume measurement (H&E staining). Brains were removed and stored in 10% formalin to be sectioned and stained with Hematoxylin and Eosin.
Infarct Volume Measurement. Using the Image Pro-Plus imaging system, a total of 7 images per brain of the posterior side of each slice were analyzed through digital analysis. The total direct infarct volume was calculated for the left hemisphere using the equation below. Digitizing and computation was done under blinded conditions.
The total infarct volumes are calculated for each animal and subsequent group means were determined as volume of area (mm^3). To account for tissue shrinkage and possible edema the indirect method of infarct volume was calculated using the formula: Total Contralateral Hemisphere Volume−Total Infarcted Hemisphere Volume (mm^3)
Experimental Groups and Compound Administration. A total of 80 animals underwent MCAo using subcutaneous administration of all test articles, according to the experimental design illustrated in Table 16. […] The time schedules for administration of all treated groups (10 animals/group) was divided as follows:
All animals were treated with the compound(s)/vehicle(s) as a blinded random investigation. The dose and route of administration is given below in Table 16. Forty animals used in the first group of the study (group a.) Cerebral blood flow measurement was performed according to the protocol previously discussed on days 0, 1 and 5 with respect to MCAo.

[3] = system: focal cerebral ischemia; conditions: 48 h; for Infarct Volume: 1 h post, 24 h post MCAo, mean ± SEM
Experimental: Control animals were injected with the vehicle for the test compounds. Survival was maintained for 48 hrs. The cortical infarction sizes were used as endpoints for efficacy evaluation.
Animal Preparation and Middle Cerebral Artery Occlusion. Male, adult, Sprague-Dawley rats (Charles River), weighing 300-400 grams, were used for the study. All animals were acclimated at least for five days before entering the study. Animals were housed in a standard animal facility and fed with commercial rodent chow ad libitum. All animals were anesthetized via intramuscular injection (4 mL/kg) of “cocktail” containing ketamine (25 mg/mL), xylazine (1.3 mg/mL) and acepromazine (0.33 mg/mL). Both carotid arteries were separated with great caution to minimize the vagal nerve stimulation. The right proximal MCA trunk was exposed through a subtemporal craniectomy without transecting the facial nerve. […] Immediately following MCA occlusion, both of the common carotid arteries were occluded for 1 hour using surgical aneurysm micro-clips (ROBOZ INC). Animals were put into temperature regulated recovery chamber for 1 hour before the clips were removed from the common carotid arteries. Body temperature was maintained at 37±0.5° C. during the surgery using a heating blanket connected to a temperature controller.
Compound Administration and Storage. In a blinded random investigation, all animals were injected with the compound(s) or vehicle via S.C. as bolus injection at 2 hours pre, 1 hour post and 24 hours post-MCAo.
Infarct Measurement. Forty-eight hours following MCAo, animals were euthanized with inhalation of CO2. Brains were removed and chilled in ice saline for 10 min. The brains were put in a metal rodent brain slicer. Each rat brain was cut coronally into 7 sections, with each section being 2 mm thick. The brain sections were immersed in 2% TTC solution for 30 min at 37° C. The areas of cerebral infarcts were determined on seven slices, using a computer-interfaced imaging system, Image-Pro® Plus, Version 4.4 for Windows (Media Cybernetics, MD). Infarct areas were then summed among slices and multiplied by slice thickness to give the total infarct volume.
Statistics. All data are expressed as mean±SEM. Infarct volume was analyzed using Student t Test. A p value of ≦0.05 was considered a statistically significant difference. All statistical analyses were performed with the software package JMP version 4.0 (SAS Institute Inc., Cary, N.C.).

[4] = system: focal cerebral infarcts (MCAo); experiment: Forelimb placing test, Tamura MCAo model; format: in vivo, rat; conditions: AVG, 0=normal, 10=maximally impaired
Description: as §1

[5] = administered six hours after MCAo
[6] = administered three hours after MCAo

Structure (SMILES): CC(C)c1c(C(=O)Nc2ccccc2)c(-c2ccccc2)c(-c2ccc(F)cc2)n1CC[C@@H](O)C[C@@H](O)CC(=O)O [atorvastatin, reference compound]
- Hindlimb placing test score, D0 [1, 5]: 0
- Hindlimb placing test score, D1 [1, 5]: 5.9
- Hindlimb placing test score, D3 [1, 5]: 4.9
- Hindlimb placing test score, D7 [1, 5]: 3.5
- Hindlimb placing test score, D0 [1, 6]: 0
- Hindlimb placing test score, D1 [1, 6]: 5.6
- Hindlimb placing test score, D3 [1, 6]: 4.3
- Hindlimb placing test score, D7 [1, 6]: 2.8
- Corrected Infarct Volume, Average [2, 5]: 271.2 mm^3
- Percent Infarct Volume, Average [2, 5]: 24.56%
- Corrected Infarct Volume, individual animals [2, 5]: 138.8 mm^3 and 267.1 mm^3 and 232.3 mm^3 and 333 mm^3 and 214.3 mm^3 and 291.6 mm^3 and 338.3 mm^3 and 354.3 mm^3
- Percent Infarct Volume, individual animals [2, 5]: 12.7% and 21.6% and 24.2% and 31% and 25.4% and 29.4% and 25.7% and 26.6%
- Corrected Infarct Volume, Average [2, 6]: 207.96 mm^3
- Percent Infarct Volume, Average [2, 6]: 21%
- Corrected Infarct Volume, individual animals [2, 6]: 208 mm^3 and 303.3 mm^3 and 262.3 mm^3 and 184.8 mm^3 and 243.8 mm^3 and 124 mm^3 and 162.8 mm^3 and 164.5 mm^3 and 218.2 mm^3
- Percent Infarct Volume, individual animals [2, 6]: 18.35% and 28.2% and 31% and 16.2101% and 25.43% and 12.82% and 17.39% and 16.81% and 22.81%
- Infarct Volume ([3]; 1 mg/kg SC at 2 h pre): 158.06 ± 32.83 mm^3
- infarct volume compared with controls (significance) ([3]; 1 mg/kg SC): not significantly different from controls
- Infarct Volume ([3]; 10 mg/kg SC at 2 h pre): 124.71 ± 17.31 mm^3
- infarct volume compared with controls (significance) ([3]; 10 mg/kg SC): not significantly different from controls
- Forelimb placing test score, D0 [4, 5]: 0
- Forelimb placing test score, D1 [4, 5]: 8.8
- Forelimb placing test score, D3 [4, 5]: 8.8
- Forelimb placing test score, D7 [4, 5]: 8
- Forelimb placing test score, D0 [4, 6]: 0
- Forelimb placing test score, D1 [4, 6]: 9.2
- Forelimb placing test score, D3 [4, 6]: 7.3
- Forelimb placing test score, D7 [4, 6]: 5.6

— patent publication US7323490B2, “Pyrrole compounds and uses thereof” (Ambit Biosciences Corporation, priority 2003, dated 2008)
